# Reference: US20220356163A1, “SMALL MOLECULE INHIBITORS OF Id PROTEINS” (MEMORIAL SLOAN KETTERING CANCER CENTER, priority 2019, published 2022)
# Experiments:
# [1] = test system: retinal neovascularization; assay: Retinopathy of prematurity (ROP) model; type: in vivo, mouse; details: intraocular injection 10 μg at P12, assessed P17, p<0.01
# Experimental: In the ROP experiment 26 C57BL/6 pups, 36 Id^−/− and 22 Id3^−/− pups were place in 75% O2 at P7. On P12 the mice were returned to room air and at P17 they were euthanized and retinal neovascularization was measured as described above. In the AGX51 ROP experiment, C57BL/6 pups were place in 75% O2 at P7. On P12 the mice were returned to room air and injected in the eye with 10 μg AGX51 or DMSO in the FE (N=15 mice/group). On P17 they were euthanized and retinal neovascularization was measured as described above. Retinal neovascularization pathology can also be studied in mouse models of retinopathy of prematurity (ROP). In this model, post-natal day (P) 7 mice are placed in a 75% O2 chamber, which causes retinal capillary depletion. At P12, the mice are returned to room air, which leads to the development of retinal ischemia and proliferative vascular disease in the retinal vasculature. When this model was applied to Id1 or Id3 knockout mice, a significant decrease in retinal neovascularization was observed (p<0.0001) compared to wild type mice (FIG. 1C).
# Id3 = target: T1, Id3 (Mus musculus, UniProt P41133); assay: Circular dichroism (CD) of Id3; type: binding; details: 0 or 100 μM
# T1 construct: GST (cleaved yes); made in house; host or cells: E. coli Rosetta 2(DE3)
# Experimental: Id protein purification. pGEV-PSP-mId1 and mId3 expression constructs were transformed into Rosetta 2(DE3) Competent Cells (Sigma Millipore) for protein expression. To produce recombinant GST-tagged protein, a 50 mL LB/Ampicillin (100 μg/m)+Chloramphenicol (25 μg/mL) culture was grown overnight at 37° C. Early the next day, the overnight culture was diluted 1:100 into 6 L LB/Ampicillin+Chloramphenicol and cultured at 37° C. for about four hours until OD600=0.7. Cultures were induced with 1 mM IPTG and incubated at 16° C. for 16-18 hours. Cells were harvested by centrifugation at 4000 rpm for 15 minutes at 4° C. and the pellet was resuspended in lysis buffer (50 mM Tris pH 8.0; 400 mM NaCl; 0.5 mM TCEP, Protease Inhibitor Cocktail) (25 mL/L of culture). To lyse the cells, Triton X-100 and lysozyme were added to 0.1% and 10 μg/mL respectively, incubated for 30 minutes on ice and sonicated. Lysates were spun at 17,000 rpm for 30 minutes at 4° C. and supernatants were filtered through a […] filter before incubation with glutathione sepharose for two hours at 4° C. The sepharose with bound protein was run through a polypropylene column and washed twice with 50 mL wash buffer (50 mM Tris pH 8.0; 400 mM NaCl) before protein was eluted with 10 mL 50 mM glutathione elution buffer, pH 8.0. […]
# MDA-MB-231 = assay: MTT assay, MDA-MB-231; type: cell-based; set-up: scale not given here; details: MDA-MB-231, TNBC cell line, 24 hours
# From the text: The 4T1 murine mammary tumor cell line and nine breast cancer cell lines representing the major breast cancer subtypes (ER+, HER2+, and TNBC) including MDA-MB-157, MDA-MB-436, MDA-MB-231, MDA-MB-453, MDA-MB-361, BT-474, SK-BR-3, MCF-7 and T47-D will be grown in RPMI or DMEM (Dulbecco's Modified Eagle Medium) media supplemented with 10% FBS (fetal bovine serum), 1% penicillin-streptomycin and 1% L-Glutamine. Patient derived xenograft cell lines BR7, BR11, and IBT will be established directly from breast cancer bone metastases specimens surgically resected from patients with informed consent. BR7 and BR11 specimens will be obtained from ER positive (HER2 negative and PR negative) metastatic breast cancer patients, while the IBT specimen will be obtained from a metastatic, triple negative breast cancer patient. Fresh tumor tissues will be quickly washed with ice cold PBS and minced into about 1-3 mm pieces in MEM medium (without FBS) using sterile razor blades. […] The cells will be treated with either 100 μM DMSO, AGX51, or a compound of the present technology such as AGX-A. The cell morphology and growth will be monitored daily for 1 week by microscopy for changes in morphology or cell death. […] Absorbance will then measured at 570 nm using a plate reader (Synergy 2, BioTek). […]
# T1 sequence (P41133 whole entry): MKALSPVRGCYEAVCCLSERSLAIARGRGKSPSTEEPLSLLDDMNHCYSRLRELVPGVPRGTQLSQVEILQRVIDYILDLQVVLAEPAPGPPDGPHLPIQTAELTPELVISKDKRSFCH
structure (smiles),measurement,setting,value
"CCC(=O)N(CCC(c1ccc2c(c1)OCO2)c1ccccc1OC)Cc1ccccc1 (racemic) [AGX51, N-(3-(benzo[d][1,3]dioxol-5-yl)-3-(2-methoxyphenyl)propyl)-N-benzylpropionamide]",retinal neovascularization,[1],significantly reduced retinal neovascularization
same,effect on Id3 secondary structure (CD),Id3,small but reproducible effect
same,percentage at 60 μM (IC50 NA),MDA-MB-231,NA (60 μM = 70%)
